pIC50: −log10 of the molar value. Where two headings read alike, the source gives them in different places. One block for each compound: values may come before it.
Legend:
PKD1 [1] = tested on: PKD1; parameters: method as in PMID 18829454, PMID 22267986, PMID 21617763, PMID 20444281, PMID 21998636; details: cited from earlier work; for pIC50: previous HTS assays; for inhibition of PKD1 in vitro: previous work
[2] = tested on: PKD1 in LNCaP prostate cancer cells; parameters: method as in PMID 18829454, PMID 22267986, PMID 21617763, PMID 20444281, PMID 21998636; details: cited from earlier work
[3] = biological target: T1, recombinant GST-tagged human protein kinase D1 (PKD1) (Homo sapiens, UniProt Q15139); test: In vitro radiometric PKD1 kinase assay; assay type: biochemical; details: for inhibition at 1 µM: read-out: Inhibition of PKD1
T1 construct: purchased Enzo Life sciences (Farmingdale, NY)
T1 sequence (Q15139 1-912): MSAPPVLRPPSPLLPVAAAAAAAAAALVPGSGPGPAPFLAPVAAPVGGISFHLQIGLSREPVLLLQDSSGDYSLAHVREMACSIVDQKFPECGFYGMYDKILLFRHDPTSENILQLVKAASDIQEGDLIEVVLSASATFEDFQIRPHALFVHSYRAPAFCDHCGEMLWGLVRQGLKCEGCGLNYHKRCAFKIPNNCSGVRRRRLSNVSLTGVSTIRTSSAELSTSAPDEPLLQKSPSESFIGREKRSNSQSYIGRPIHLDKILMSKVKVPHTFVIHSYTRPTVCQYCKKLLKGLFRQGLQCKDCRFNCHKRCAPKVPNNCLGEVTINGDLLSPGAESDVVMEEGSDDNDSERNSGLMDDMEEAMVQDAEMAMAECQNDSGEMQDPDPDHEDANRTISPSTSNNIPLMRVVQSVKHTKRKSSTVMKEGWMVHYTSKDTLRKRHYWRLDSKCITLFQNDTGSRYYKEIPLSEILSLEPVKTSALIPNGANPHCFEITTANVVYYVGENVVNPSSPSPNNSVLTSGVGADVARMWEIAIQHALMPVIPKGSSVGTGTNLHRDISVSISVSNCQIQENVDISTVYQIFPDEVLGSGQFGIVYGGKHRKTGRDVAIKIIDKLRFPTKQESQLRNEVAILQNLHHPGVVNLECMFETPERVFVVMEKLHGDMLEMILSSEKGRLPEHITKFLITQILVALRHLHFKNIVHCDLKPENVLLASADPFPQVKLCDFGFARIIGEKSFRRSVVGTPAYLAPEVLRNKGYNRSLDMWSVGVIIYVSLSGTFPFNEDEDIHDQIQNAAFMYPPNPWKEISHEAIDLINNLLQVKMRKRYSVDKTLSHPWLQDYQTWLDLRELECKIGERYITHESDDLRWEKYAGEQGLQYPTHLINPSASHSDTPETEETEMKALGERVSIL
Experimental: All compounds were given distinct UPCMLD (University of Pittsburgh Center for Chemical Methodologies and Library Development) IDs and were then assigned numerical IDs for convenient data display. Evaluation of each compound was carried out in triplicate at a single concentration (1 µM). Our previously described PKD1 inhibitor, kb-NB142-70, and DMSO (solvent alone) were used as positive and negative controls, respectively. Percent residual kinase activity was calculated based on that of the negative control (DMSO).
Kinase active recombinant GST-tagged human protein kinase D1 (PKD1) was obtained from Enzo Life sciences (Farmingdale, NY). DMSO was purchased from Sigma. Recombinant PKCα, PKCδ and CAMKIIα were obtained from SignalChem (Richmond, BC, Canada). ATP was purchased from Fisher Scientific. HDAC5 substrate peptide was synthesized by Biobasic Canada Inc. (Markham, ON). Myelin basic protein 4–14 was purchased from AnaSpec Inc. (Fremont, CA). The targeted kinase inhibitor library was obtained from Hoffmann-La Roche, Inc.
1.2 µg of HDAC-5 was used as substrate in the reaction. Phosphorylation of HDAC5 was detected in a kinase reaction having 1 µCi [γ-^32P] […] The reaction was incubated at 30° for 10 minutes and 25 µL of the reaction was spotted on Whatman P81 filter paper. The filter paper was washed 3 times in 0.5% phosphoric acid, air dried and counted using Beckman LS6500 multipurpose scintillation counter. Percent PKD1 inhibition was graphed using GraphPad Prism software 5.0.

p38δ = p38δ (Homo sapiens, UniProt O15264); test: In vitro radiometric p38 kinase assay; assay type: biochemical
Chain of p38δ (O15264 whole entry): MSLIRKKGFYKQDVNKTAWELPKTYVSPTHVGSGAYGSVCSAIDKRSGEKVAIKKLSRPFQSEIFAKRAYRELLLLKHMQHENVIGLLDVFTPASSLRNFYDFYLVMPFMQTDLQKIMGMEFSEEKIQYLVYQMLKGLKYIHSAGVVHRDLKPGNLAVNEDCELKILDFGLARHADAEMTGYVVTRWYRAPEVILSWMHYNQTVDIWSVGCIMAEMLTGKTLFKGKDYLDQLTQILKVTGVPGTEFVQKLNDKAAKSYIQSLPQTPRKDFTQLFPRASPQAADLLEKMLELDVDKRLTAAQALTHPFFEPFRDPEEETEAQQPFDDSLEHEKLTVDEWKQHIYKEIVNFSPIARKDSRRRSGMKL
Experimental: To confirm that p38 was indeed a target of the 4-azaindole, the inhibition of p38 by the twenty-eight PKD1 inhibitors was evaluated using an in vitro radiometric p38 kinase assay. […] Taken together, our data has identified a novel PKD1 inhibitor scaffold that is active for p38α, but not for PKC, CAMK and p38δ.
Phosphorylation of 3.5 µg of p38 substrate was detected in a reaction having 1 µCi [γ-^32P] ATP (Perkin Elmer Life Sciences), 50 µM ATP, 50 ng active recombinant p38 in 50 µL kinase buffer containing 25 mM Tris-HCl, pH 7.5, 10 mM MgCl2, 5 mM β-glycerophosphate, 0.1 mM Na3VO4 and 2 mM DTT. The reaction was incubated at 30°C for 10 minutes and 25 µL of the reaction was spotted on Whatman P81 filter paper. The filter paper was washed 3 times in 0.5% phosphoric acid, air dried and counted using Beckman LS6500 multipurpose scintillation counter. Percent p38 inhibition was graphed using GraphPad Prism software 5.0.

PKCδ = PKCδ (Homo sapiens, UniProt Q05655); test: In vitro radiometric PKC kinase assay; assay type: biochemical; parameters: purchased SignalChem (Richmond, BC, Canada); details: read-out: inhibition of PKCδ
Chain of PKCδ (Q05655 whole entry): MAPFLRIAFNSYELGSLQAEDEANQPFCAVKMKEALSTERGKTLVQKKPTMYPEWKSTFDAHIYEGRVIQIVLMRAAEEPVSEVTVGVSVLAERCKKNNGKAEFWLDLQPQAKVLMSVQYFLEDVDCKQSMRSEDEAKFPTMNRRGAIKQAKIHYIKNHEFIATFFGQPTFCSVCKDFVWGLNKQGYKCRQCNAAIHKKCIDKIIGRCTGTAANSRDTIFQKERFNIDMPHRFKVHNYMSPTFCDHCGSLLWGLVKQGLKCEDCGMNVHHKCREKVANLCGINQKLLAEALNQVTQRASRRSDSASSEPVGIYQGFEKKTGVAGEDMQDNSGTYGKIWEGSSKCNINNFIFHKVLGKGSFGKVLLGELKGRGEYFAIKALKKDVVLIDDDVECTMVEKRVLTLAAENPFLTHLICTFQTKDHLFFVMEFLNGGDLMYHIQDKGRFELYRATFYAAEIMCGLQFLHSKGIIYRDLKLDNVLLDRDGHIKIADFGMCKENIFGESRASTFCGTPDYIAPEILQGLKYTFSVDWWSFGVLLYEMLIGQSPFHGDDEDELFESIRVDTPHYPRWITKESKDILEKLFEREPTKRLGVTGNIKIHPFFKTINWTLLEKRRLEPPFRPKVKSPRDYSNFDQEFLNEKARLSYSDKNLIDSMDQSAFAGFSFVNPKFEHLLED
Experimental: In this study, we counter-screened the twenty-eight PKD1 inhibitory agents for inhibition of PKCα, PKCδ and CAMKIIα in order to get an initial profile for the potential PKD selectivity, since these are the functionally most closely related kinases. The compounds were examined at 0.1, 1 and 10 µM concentration. […] Next, the inhibitory activity for CAMKIIα was examined.
The PKC kinase assay was carried out by co-incubating 1 µCi [γ-^32P]ATP, 20 µM ATP, 50 ng of purified PKCα or PKCδ and 5 µg of myelin basic protein 4–14, 0.25 mg/mL bovine serum albumin, 0.1 mg/mL phosphatidylcholine/phosphatidylserine (80/20%) (1 µM), 1 µM phorbol dibutyrate in 50 µL of kinase buffer containing 50 mM Tris-HCl, pH 7.5, 4 mM MgCl2 and 10 mM β-mercaptoethanol. For the CAMK assay, 50 ng of CAMK and 2 µg Syntide-2 substrate in 50 µL kinase buffer were incubated with 0.1 mM MgCl2, 1 µCi of [γ-^32P] ATP, 70 µM ATP. 0.5 mM CaCl2 and 30 ng/µL calmodulin were preincubated for 15 min on ice and then added in the kinase reaction. The reactions were incubated at 30°C for 10 minutes and 25 µL of the reaction was spotted on Whatman P81 filter paper. The filter paper was washed 3 times in 0.5% phosphoric acid, air dried and counted using Beckman LS6500 multipurpose scintillation counter.

[4] = biological target: T2, endogenous PKD1 in LNCaP prostate cancer cells (Homo sapiens, UniProt Q15139); test: PMA-induced activation of PKD1 in LNCaP cells (immunoblot pS916 / pS744/748); assay type: cell-based; details: PMA 10 nM
T2 construct: endogenous in cells; host or cells: LNCaP prostate cancer cells
T2 sequence (Q15139 1-912): T1 sequence (Q15139 1-912)
Experimental: (§1) PMA induces PKC-dependent phosphorylation of Ser744/748 (S^744/748) in the activation loop followed by autophosphorylation of PKD1 on Ser916 (S^916) in the C-terminus, [31]. The catalytic activity of PKD1 correlates well with the level of phosphorylation at S^916 [31].
(§2) Figure 5 In vitro IC50, cellular activity, and mode of action of representative compounds. […] IC50 values were calculated based on the dose-response curve. Data are represented as mean ± SEM of 3 independent experiments. […] Cell lysates were subjected to immunoblotting for pS^916-PKD1 and pS^744/748-PKD1. Tubulin was blotted as loading control. The experiments were repeated three times and representative blots are shown. C.

PKD1 [5] = biological target: T3, PKD1 (Homo sapiens, UniProt Q15139); test: Kinetic analysis, Lineweaver-Burk plots (ATP competition); assay type: biochemical
T3 construct: purchased Enzo Life sciences (Farmingdale, NY)
Experimental: as §1, §2

[6] = 1 µM, triplicate determinations

Compound: O=C1NCCCc2c1oc1ccc(O)cc21 [CID755673]
- pIC50 (PKD1 [1]): 6.74
- inhibition of PKD1 in vitro (PKD1 [1]): low nanomolar range
- suppression of PKD1 autophosphorylation at Ser916 [2]: low micromolar range

Compound: CCN1/C(=C/C(C)=O)Sc2ccc(OC)cc21 [CID1893668]
- pIC50 (PKD1 [1]): 5.77
- inhibition of phorbol ester-induced endogenous PKD1 activation [2]: in a concentration-dependent manner

Compound: O=C(Nc1ccc(CN2CCOCC2)cc1)c1ccc(-c2cccc(Cl)c2)o1 [CID2011756]
- pIC50 (PKD1 [1]): 5.49
- inhibition of phorbol ester-induced endogenous PKD1 activation [2]: in a concentration-dependent manner

Compound: Cc1cc(NCCCN)nc(-c2ccccc2O)n1 [CID5389142]
- pIC50 (PKD1 [1]): 5.82
- inhibition of phorbol ester-induced endogenous PKD1 activation [2]: in a concentration-dependent manner

- inhibition at 1 µM [3, 6]: 57%
Compound: O=C1Nc2ccc(F)cc2/C1=C/c1ccc[nH]1 [Compound 4]

- inhibition at 1 µM [3, 6]: 55%
Compound: COc1cc[nH]c1/C=C1\C(=O)Nc2ccccc21 [Compound 5]

- inhibition at 1 µM [3]: 94%
Compound: CNCC#Cc1c(F)ccc2c1/C(=C/c1[nH]ccc1OC)C(=O)N2 [Compound 11]

- inhibition at 1 µM [3, 6]: 80%
Compound: COc1cc[nH]c1/C=C1\C(=O)Nc2ccc(F)c(C#CC3(O)CCOCC3)c21 [Compound 13]

- inhibition at 1 µM [3, 6]: 97%
- inhibition at 1 µM (p38δ): ≥ 50%
Compound: COc1cc[nH]c1/C=C1\C(=O)Nc2ccc(F)c(C#CC3(O)CCNCC3)c21 [Compound 15]

- inhibition at 1 µM [3, 6]: 95%
Compound: CN[C@H](C#Cc1c(F)ccc2c1/C(=C/c1[nH]ccc1OC)C(=O)N2)CO [Compound 16]

- inhibition at 1 µM [3, 6]: 97%
Compound: COc1cc[nH]c1C=C1C(=O)Nc2ccc(F)c(C#CC(O)C(N)C(C)O)c21 (centres unmarked) [Compound 17]

- inhibition at 1 µM [3, 6]: 54%
Compound: Cn1cc(C2=C(c3cccc4ccccc34)C(=O)NC2=O)c2ccccc21 [Compound 25]

- inhibition at 1 µM [3, 6]: 65%
Compound: CSc1c(C2=C(c3cn(C)c4ccccc34)C(=O)NC2=O)c2ccccc2n1C [Compound 30]

- inhibition at 1 µM [3, 6]: 65%
Compound: Cn1cc(C2=C(c3cn(CCCO)c4ccccc34)C(=O)NC2=O)c2ccccc21 [Compound 34]

- inhibition at 1 µM [3]: 77%
Compound: COc1ccc(O)c(C(=O)c2ccc(C(=O)O[C@@H]3CCCNC[C@H]3NC(=O)c3ccncc3)cc2)c1F [Compound 100]

- inhibition at 1 µM [3]: 86%
- inhibition at 10 µM (PKCδ): ~50%
Compound: O=C1Nc2ccc(F)c3c(OCCO)cc(-c4ccc[nH]4)c1c23 [Compound 101]

- inhibition at 1 µM [3, 6]: 93%
Compound: COc1cc[nH]c1/C=C1\C(=O)Nc2ccc([N+](=O)[O-])c(N3CC[C@@H](O)C3)c21 [Compound 102]

- inhibition at 1 µM [3]: 65%
- inhibition at 10 µM (PKCδ): ~50%
Compound: COc1cccc(C(=O)c2sc(Nc3ccc(N4CCN(C(C)C)CC4)cc3)nc2N)c1 [Compound 104]

- inhibition at 1 µM [3]: 86%
- inhibition at 10 µM (PKCδ): ~70%
Compound: Fc1ccc(-c2c(-c3ccncc3)[nH]c3cccnc23)cc1 [Compound 116]

- inhibition at 1 µM [3]: 55%
Compound: Cn1c(-c2ccncc2)c(-c2ccc(F)cc2)c2ncccc21 [Compound 121]

- inhibition at 1 µM [3, 6]: 58%
Compound: OCCn1c(-c2ccncc2)c(-c2ccc(F)cc2)c2ncccc21 [Compound 123]

- inhibition at 1 µM [3, 6]: 62%
- inhibition at 10 µM (PKCδ; 10 µM): ~50%
Compound: Cc1cc(C)c2c(n1)sc1c(N)ncnc12 [Compound 172]

- inhibition at 1 µM [3]: 78%
Compound: COc1ccc(O)c(C(=O)c2ccc(C(=O)N[C@@H]3CCCNC[C@H]3NC(=O)c3ccncc3)cc2)c1F [Compound 175]

- inhibition at 1 µM [3, 6]: 55%
- inhibition at 10 µM (PKCδ; 10 µM): ~50%
Compound: O=C1N=C(NCc2ccccc2)S/C1=C\c1ccc2ncccc2c1 [Compound 178]

- inhibition at 1 µM [3, 6]: 49%
- inhibition at 10 µM (PKCδ; 10 µM): ~70%
Compound: O=C1N=C(N[C@H](CO)Cc2ccccc2)S/C1=C\c1ccc2ncccc2c1 [Compound 190]

- inhibition at 1 µM [3, 6]: 62%
- inhibition at 1 µM (p38δ): ≥ 50%
- inhibition at 10 µM (PKCδ; 10 µM): ~70%
Compound: O=C1N=C(N[C@@H](CO)Cc2ccccc2)S/C1=C\c1ccc2ncccc2c1 [Compound 198]

- inhibition at 1 µM [3, 6]: 85%
Compound: O=C1N=C(N[C@H](CO)c2ccccc2)S/C1=C\c1ccc2ncccc2c1 [Compound 203]

- inhibition at 1 µM [3, 6]: 82%
Compound: NC1=NC(=O)/C(=C/c2ccc3ncccc3c2)S1 [Compound 205]

- inhibition at 1 µM [3, 6]: 64%
- pIC50 ([3]; dose-response, mean ± SEM of 3 independent experiments): 6.25
- effect on PKC-induced transphosphorylation at S744/748 [4]: did not affect
- pIC50 ([4]; densitometry of pS916-PKD1 levels, read-out: cellular IC50 for inhibition of PKD1): 4.74
- mode of inhibition with respect to ATP (PKD1 [5]): competitive with respect to ATP
Compound: CNC1=NC(=O)/C(=C/c2ccc3ncccc3c2)S1 [Compound 209]

Compound: O=C1NCCSc2c1sc1ccc(O)cc21 [kb-NB142-70]
- pIC50 (PKD1 [1]): 7.55
- inhibition of PKD1 in vitro (PKD1 [1]): low nanomolar range
- suppression of PKD1 autophosphorylation at Ser916 [2]: low micromolar range
